Where a name gives a salt, the structure may show the parent alone. ± gives the uncertainty stated by the source.
Tests used:
[1] = system: KeratinoSens (HaCaT ARE-luciferase) cells; test: efficacy of ARE luciferase induction relative to DMSO (% activity over DMSO); higher = stronger induction; conditions: exposure time: 24 h
[2] = system: KeratinoSens (HaCaT ARE-luciferase) cells; test: AC50 of Nrf2/ARE luciferase induction; higher = less potent; conditions: exposure time: 24 h
[3] = system: THP-1; test: efficacy of IL-8 induction relative to DMSO (% activity); higher = stronger induction; conditions: exposure time: 18 h
[4] = system: KeratinoSens (HaCaT ARE-luciferase) cells; test: cytotoxicity AC50 (CellTiter-Fluor viability); higher = less cytotoxic; conditions: exposure time: 24 h
[5] = system: cysteine peptide Ac-RFAACAA-COOH; test: AC50 of cysteine peptide concentration-response (direction given by sign of efficacy); higher = less potent; conditions: incubation time: 24 h
[6] = system: lysine peptide Ac-RFAAKAA-COOH; test: efficacy of lysine peptide change (negative = depletion) (% activity); higher = less depletion; conditions: incubation time: 24 h
[7] = system: cysteine peptide Ac-RFAACAA-COOH; test: efficacy of cysteine peptide change (negative = depletion) (% activity); higher = less depletion; conditions: incubation time: 24 h

| SMILES | efficacy of ARE luciferase induction [1] | AC50 of Nrf2/ARE luciferase induction [2] [µM] | efficacy of IL-8 induction [3] | cytotoxicity AC50 [4] [µM] | AC50 [5] [µM] | efficacy of lysine peptide change [6] | efficacy of cysteine peptide change [7] |
| --- | --- | --- | --- | --- | --- | --- | --- |
| CCN(CC)CCNc1ccc(CNC=O)c2sc3ccc(OC)cc3c(=O)c12 | 189 ± 110 | 63.9 | 3.79 ± 6.6 | 59.5 ± 26 |  |  |  |
| Nc1ccccc1N [1,2-Phenylenediamine*] | 88 ± 31 | 34.4 | 4.93 ± 5.2 |  | 1.06 ± 0.49 | 7.79 ± 12 | -90.9 ± 5 |
| O=C(CCl)CCl [1,3-Dichloropropanone] | 84.2 ± 64 | 40.9 | 22.5 ± 6.2 |  | 35.6 ± 4.1 | -12.5 ± 16 | -107 ± 9.9 |
| Nc1ccc(N)cc1 [1,4-Benzenediamine] | 54.5 ± 20 | 39.8 | 19.1 ± 5.7 |  | 9.58 ± 2.8 | 61 ± 17 | -107 ± 20 |
| C=CC(=O)OCCCCOC(=O)C=C [1,4-Butanediol diacrylate] | 336 ± 19 | 35.5 | 16.2 ± 1.7 | 43 ± 2.8 |  |  |  |
| Cc1ccc2c(c1N)C(=O)c1ccccc1C2=O [1-Amino-2-methylanthraquinone] | 55.7 ± 35 | 37.8 | 0 |  | 24.3 ± 3.4 | -8.55 ± 7.6 | -101 ± 4.8 |
| C/C=C/C=C/C=O [2,4-Hexadienal] | 427 ± 46 | 73.7 | 12.8 ± 12 |  | 17 ± 5 | -110 ± 23 | -129 ± 9.8 |
| O=C(Nc1ccccc1)c1cc([N+](=O)[O-])ccc1Cl [2-Chloro-5-nitro-N-phenylbenzamide] | 92.4 ± 39 | 40 | 10.4 ± 3 |  |  | 58.4 ± 17 | -15.7 ± 6.5 |
| Cc1ccc2c(c1[N+](=O)[O-])C(=O)c1ccccc1C2=O [2-Methyl-1-nitroanthraquinone] | 81.9 ± 8.7 | 34.8 | 12 ± 10 |  |  | 0.29 ± 19 | -26 ± 7.3 |
| Nc1ccc(Cl)cc1N [4-Chloro-1,2-diaminobenzene*] | 70 ± 21 | 13.7 | 10.3 ± 2.3 |  | 5.4 ± 2.3 | -6.76 ± 18 | -99.1 ± 6 |
| C=CC(=O)OCCOC(=O)CCC(=O)O [4-[2-(Acryloyloxy)ethoxy]-4-oxobutanoic acid] | 87.4 ± 29 | 61.3 | 0 |  | 34.1 ± 14 | -2.94 ± 13 | -111 ± 7.3 |
| C[C@]12C=CC3=C4CCC(=O)C=C4CC[C@H]3[C@@H]1CC[C@@H]2O [17beta-Trenbolone] | 189 ± 53 | 39.1 | 32.2 ± 36 | 50.9 ± 20 |  |  |  |
| CCOCN(C(=O)CCl)c1c(C)cccc1CC [Acetochlor] | 98.8 ± 68 | 53.6 | 8.32 ± 8.4 | 55.2 ± 14 |  | 79.9 ± 12 | 11.4 ± 11 |
| Cc1c(C)n(CCN(C)C)c2ccc(C(=O)OCCN(C)C)cc12 [Amindocate] | 96.2 ± 38 | 29.8 | -1.77 ± 3.1 | 28.3 ± 9.3 |  | 58.5 ± 9.6 | 9.57 ± 11 |
| COc1ccc(-c2cc(=S)ss2)cc1 [Anethole trithione] | 96.9 ± 78 | 22 | 38.6 ± 10 | 34.2 ± 2.2 |  | -0.11 ± 7.8 | -84.1 ± 12 |
| O=C(Nc1cccc(Cl)c1)OCC#CCCl [Barban] | 101 ± 30 | 35.5 | 34.1 ± 7.5 | 55.2 ± 14 |  | 33.7 ± 4.6 | -52.5 ± 14 |
| c1ccc2cc3c(ccc4ccccc43)cc2c1 [Benz(a)anthracene] | 126 ± 33 | 40 | 32.1 ± 4.5 |  | 12.2 ± 1.7 | -36.8 ± 14 | -97.8 ± 2.9 |
| O=C(OCc1ccccc1)c1ccc(O)cc1 [Benzylparaben] | 52.2 ± 9.2 | 12.1 | 0 |  |  | 90.8 ± 51 | 0 |
| CCCCOCN(C(=O)CCl)c1c(CC)cccc1CC [Butachlor] | 324 ± 31 | 70.8 | 22.1 ± 11 | 41.4 ± 2.8 |  | 2.3 ± 11 | -24.1 ± 21 |
| Oc1ccc2ccccc2c1N=Nc1ccccc1 [C.I. Solvent Yellow 14] | 49.8 ± 19 | 28.2 | 5.32 ± 9.2 |  | 10.8 ± 3.5 | -31.1 ± 6.5 | -94.7 ± 4 |
| [Cl][Cd][Cl] [Cadmium II chloride] | 146 ± 94 | 18.9 | 19.4 ± 2.2 | 37.3 ± 6.7 |  | 4.14 ± 11 | 11.2 ± 30 |
| O=c1cc(-c2ccccc2)oc2cc(O)cc(O)c12 [Chrysin] | 210 ± 48 | 53.6 | 13.2 ± 3.6 |  |  | 22 ± 20 | -10.9 ± 9.8 |
| Cc1cc(C2CC2)nc(Nc2ccccc2)n1 [Cyprodinil] | 41.8 ± 10 | 35.1 | 2.31 ± 4 |  |  | 57 ± 8.8 | 6 ± 10 |
| C[C@]12CC[C@H](O)C[C@H]1CC[C@@H]1[C@@H]2C[C@@H](O)[C@]2(C)[C@@H](C3=CC(=O)OC3)CC[C@]12O [Digoxigenin] | 600 ± 260 | 5.7 | 21.1 ± 4.1 | 4.65 ± 1.6 |  | 68.2 ± 22 | 2.17 ± 3.8 |

| SMILES | efficacy of ARE luciferase induction [1] | AC50 of Nrf2/ARE luciferase induction [2] [µM] | efficacy of IL-8 induction [3] | cytotoxicity AC50 [4] [µM] | AC50 [5] [µM] | efficacy of lysine peptide change [6] | efficacy of cysteine peptide change [7] |
| --- | --- | --- | --- | --- | --- | --- | --- |
| O=C(Oc1ccccc1)c1cccc(C(=O)Oc2ccccc2)c1 [Diphenyl isophthalate] | 56.2 ± 20 | 29.8 | 0 |  |  | -2 ± 3.5 | -4.99 ± 8.6 |
| CCOc1ccc2nc(S(N)(=O)=O)sc2c1 [Ethoxzolamide] | 58.7 ± 28 | 25.3 | 10.3 ± 4.8 |  |  | 35.1 ± 5 | 2.67 ± 4.6 |
| C=C1C[C@@H]2[C@H](CC[C@]3(C)C(=O)CC[C@@H]23)[C@@]2(C)C=CC(=O)C=C12 [Exemestane] | 109 ± 64 | 33 | 3.01 ± 5.2 |  |  | 97.5 ± 6.3 | -9.57 ± 9.8 |
| C/C=C1\C(=O)C[C@H]2[C@@H]3CCC4=CC(=O)CC[C@]4(C)[C@H]3CC[C@]12C [Guggulsterone Z] | 135 ± 63 | 53.6 | 7.24 ± 12 |  |  | 11.4 ± 10 | 2.81 ± 4.9 |
| C=CCOC(Cn1ccnc1)c1ccc(Cl)cc1Cl (centres undefined) [Imazalil sulfate] | 40.5 ± 36 | 29.9 | 0 |  |  | 166 ± 21 | 38.5 ± 11 |
| CC(C)=CCC1=C(O)c2ccccc2C(=O)C1=O [Lapachol] | 65.3 ± 5.4 | 26.7 | 25.8 ± 1.6 |  |  | -2.31 ± 13 | 26.5 |
| O=C(O)Cn1c(C(=O)Nc2nc(-c3ccccc3Cl)cs2)cc2ccccc21 [Lintitript] | 155 ± 87 | 32.9 | 8.96 ± 8.3 |  |  | -12.9 ± 12 | 1.07 ± 9.6 |
| CC#Cc1cc(C)nc(Nc2ccccc2)n1 [Mepanipyrim] | 73.3 ± 15 | 47.4 | 4.67 ± 8.1 |  |  | 48.4 ± 24 | -2.96 ± 5.1 |
| COc1ccc(C(c2ccc(OC)cc2)C(Cl)(Cl)Cl)cc1 [Methoxychlor] | 50.9 ± 18 | 43.2 | 21.1 ± 3.3 |  |  | -3.51 ± 15 | 2.72 ± 4.7 |
| COc1ccc2cc(CCC(C)=O)ccc2c1 [Nabumetone] | 124 ± 44 | 3.98 | 0.27 ± 5.5 | 7.94 |  | -2.87 ± 17 | -3.44 ± 6 |
| O=C1Nc2ccccc2C1(c1ccc(O)cc1)c1ccc(O)cc1 [Oxyphenisatin] | 47.8 ± 12 | 19 | 0 |  |  | 39.7 ± 4.7 | -16.7 ± 14 |
| O=[N+]([O-])c1c(Cl)c(Cl)c(Cl)c(Cl)c1Cl [Pentachloronitrobenzene] | 47.4 ± 32 | 42.1 | 12.2 ± 11 |  |  | 5.1 ± 8.8 | -3.67 ± 6.3 |
| O=CC(=O)c1ccccc1 [Phenyl glyoxal] | 522 ± 80 | 35.5 | 0 |  |  | -25.8 ± 6.1 | -26.9 ± 24 |
| Clc1ccccc1-c1nc(-c2ccncc2)no1 [Pifexole] | 60.8 ± 7.6 | 11.4 | 4.35 ± 7.5 |  |  | 10.5 ± 18 | 3.16 ± 5.5 |
| C[C@@H]1O[C@@H](O[C@@H]2C=C3CC[C@@H]4[C@H](CC[C@]5(C)[C@@H](c6ccc(=O)oc6)CC[C@]45O)[C@@]3(C)CC2)[C@H](O)[C@H](O)[C@H]1O [Proscillaridin] | 246 ± 170 | 0.27 | 38.2 ± 14 | 0.51 ± 0.11 |  | 14.3 ± 11 | 2.01 ± 3.5 |
| CC(COc1ccc(Oc2ccccc2)cc1)Oc1ccccn1 (centres undefined) [Pyriproxyfen] | 83.9 ± 13 | 34.9 | 4.2 ± 1.8 |  |  | -7.08 ± 11 | 8.09 ± 7 |
| CC(C)=CCOc1ccc(/C=C/C(=O)c2ccc(OCC=C(C)C)cc2OCC(=O)O)cc1 [Sofalcone] | 521 ± 240 | 33 | 0 |  |  | -12.4 ± 20 | 54.9 |
| O=C1OC(OC(=O)c2cccnc2Nc2cccc(C(F)(F)F)c2)c2ccccc21 (centres undefined) [Talniflumate] | 1280 ± 66 | 35.5 | 9.09 ± 8.3 |  |  | 85.3 ± 9.9 | -29.7 ± 11 |
| OC[P+](CO)(CO)CO [Tetrakis(hydroxymethyl)phosphonium SO4] | 126 ± 16 | 29.4 | 4.18 ± 7.2 |  |  | -40.3 ± 14 | 43.1 ± 6.6 |
| NNC(N)=S [Thiosemicarbazide] | 64.8 ± 15 | 15.8 | 35.8 ± 29 | 28.3 ± 3.2 |  | 9.67 ± 17 | -40.9 ± 11 |
| CCN(CC)CCOc1ccc2c(c1)C(=O)c1cc(OCCN(CC)CC)ccc1-2 [Tilorone] | 293 ± 85 | 22.1 | 27.2 ± 3.2 | 12.6 ± 1.4 |  | 81.7 ± 28 | -43 ± 15 |
| CCCOC/C(=N\c1ccc(Cl)cc1C(F)(F)F)n1ccnc1 [Triflumizole] | 134 ± 58 | 63.9 | 38.3 ± 1.3 |  |  | 41.1 ± 13 | 4.17 ± 7.2 |
| O=C(CCCCCCC(=O)Nc1ccccc1)NO [Vorinostat (SAHA)] | 597 ± 130 | 11.7 | 7.76 ± 8.9 | 11.4 ± 2.1 |  | 11.4 ± 21 | 0 |
| COP(=O)(OC)O/C(=C\Cl)c1cc(Cl)c(Cl)cc1Cl [Z-Tetrachlorvinphos] | 72.1 ± 13 | 41.8 | 1.71 ± 3 | 53.6 ± 16 |  | 75.2 ± 24 | 4.88 ± 8.5 |

Reference: the supplement of paper PMC10933113
